Reference: US20090093482A1, “THERAPEUTIC COMPOSITIONS AND METHODS” (Gilead Sciences, Inc., priority 2007, published 2009)
“And” between values parts separate entries of the source, which are not always exact repeats. Equal entries are not always repeated.

How the values were obtained:
[1] = Pharmacokinetic interaction between lopinavir/r and the Compound, steady-state PK in healthy volunteers; format: in vivo, human; settings: for Exposures when coadministered with the Compound: LPV/r 400/100 mg BID + the Compound 125 mg QD; for AUCtau % GMR (90% CI) / Cmax % GMR (90% CI) / Ctau % GMR (90% CI): 14-day periods
[2] = Compartmental modeling in WinNonlin of Compound doses using the observed lopinavir interaction data; design: species or system human; settings: modeled
From the text: Consideration was given to achieving equivalent Compound exposures in patients receiving and not receiving lopinavir using pharmacokinetic (bio-) equivalence comparisons (Pharsight Corporation, Mountain View, Calif., USA). Consideration was also given to minimizing the number of individuals with extreme outliers in (low or high) exposures.

[3] = LPV/r 400/100 mg BID + the Compound 125 mg QD vs LPV/r 400/100 mg BID alone, n = 13
[4] = the Compound 125 mg QD + LPV/r 400/100 mg BID vs the Compound/r 125/100 mg QD alone, n = 14

Row | Compound | Exposures when coadministered with the Compound [1] | AUCtau % GMR (90% CI) [1, 3] | Cmax % GMR (90% CI) [1, 3] | Ctau % GMR (90% CI) [1, 3] | Trough concentrations when coadministered with the Compound ([1]; relative to recommended target troughs) | AUCtau % GMR (90% CI) [1, 4] | Cmax % GMR (90% CI) [1, 4] | Ctau % GMR (90% CI) [1, 4] | Reduction in the dose of the Compound with lopinavir while maintaining an equivalent exposure [2] | Dose of the Compound with lopinavir/r giving systemic exposure (AUC) similar to a 150 mg dose without lopinavir ([2]; reference is the 150 mg ritonavir-boosted dose without lopinavir) | Dose of the Compound with lopinavir/r giving systemic exposure (AUC) similar to a 300 mg dose without lopinavir ([2]; reference is the 300 mg ritonavir-boosted dose without lopinavir)
1 | CC(C)c1nc(CN(C)C(=O)NC(C(=O)NC(Cc2ccccc2)CC(O)C(Cc2ccccc2)NC(=O)OCc2cncs2)C(C)C)cs1 (stereo not drawn) [RTV, 1,3-thiazol-5-ylmethyl[3-hydroxy-5-[3-methyl-2-[methyl-[(2-propan-2-yl-1,3-thiazol-4-yl)methyl]carbamoyl]amino-butanoyl]amino-1,6-diphenyl-hexan-2-yl]aminoformate] | unaltered | 103% | 114% | 88.3% | – | – | – | – | – | – | –
2 | Cc1cccc(C)c1OCC(=O)N[C@@H](Cc1ccccc1)[C@@H](O)C[C@H](Cc1ccccc1)NC(=O)[C@H](C(C)C)N1CCCNC1=O [LPV, (2S)-N-[(2S,4S,5S)-5-{[2-(2,6-dimethyl-phenoxy)acetyl]amino}-4-hydroxy-1,6-diphenyl-hexan-2-yl]-3-methyl-2-(2-oxo-1,3-diazinan-1-yl)butanamide] | unaltered | 96.6% | 99.2% | 92.3% | maintained above recommended target troughs | – | – | – | – | – | –
3 | COc1cc2c(cc1Cc1cccc(Cl)c1F)c(=O)c(C(=O)O)cn2[C@H](CO)C(C)C [the Compound, 6-(3-chloro-2-fluorobenzyl)-1-[(2S)-1-hydroxy-3-methylbutan-2-yl]-7-methoxy-4-oxo-1,4-dihydroquinoline-3-carboxylic acid] | – | – | – | – | – | 175 (150, 204) % | 152 (129, 179) % | 238 (181, 313) % | 40-60% | 85 mg and 85 ± 10 mg | 150 mg
